Measurements: patent US20120214784A1, “SPIROPIPERIDINE COMPOUNDS AS ORL-1 RECEPTOR ANTAGONISTS” (ELI LILLY AND COMPANY, priority 2009, published 2012)

Columns and labels:
[1] = biological target: T1, nociceptin/ORL1 receptors (Rattus norvegicus, UniProt P35370); experiment: In vivo receptor occupancy (LC/MS/MS, RO Tracer) in hypothalamus; conditions: iv, intravenously 30 mg/kg 1 hr. prior to RO Tracer, positive control
T1 construct: rats are sacrificed by cervical dislocation and the hypothalamus is removed; from tissue; host or cells: rat hypothalamus (in vivo occupancy)
T1 sequence (P35370 whole entry): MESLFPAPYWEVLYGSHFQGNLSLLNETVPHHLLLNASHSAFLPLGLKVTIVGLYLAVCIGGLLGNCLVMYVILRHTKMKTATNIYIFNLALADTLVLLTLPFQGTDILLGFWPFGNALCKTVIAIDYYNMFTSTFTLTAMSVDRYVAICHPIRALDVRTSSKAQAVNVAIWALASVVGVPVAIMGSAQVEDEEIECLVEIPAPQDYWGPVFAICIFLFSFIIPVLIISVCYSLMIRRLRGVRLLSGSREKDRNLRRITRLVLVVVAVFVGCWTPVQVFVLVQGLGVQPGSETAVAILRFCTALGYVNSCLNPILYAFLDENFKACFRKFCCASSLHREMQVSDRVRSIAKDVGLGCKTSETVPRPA

[2] = test system: wild type and ORL knockout mice; experiment: Blockade of fasting-induced hyperphagia in mice; type: in vivo, mouse
Excerpt: Blockade of fasting-induced hyperphagia in rats is an accepted model for hyperphagic eating disorders. […] Mice are individually housed a minimum of 3 days prior to the onset of testing to eliminate any effects of stress due to the change from group to individual housing. Three mice/genotype are randomly assigned to each treatment group on the test day. Pre-fast body weight measurements are taken, and food is then removed from cages overnight. Mice are fasted for approximately 15 hr. The next morning, the mice are given one of three doses of drug or vehicle via oral gavage 30 min. prior to gaining access to food. Drugs are dissolved in 20% Captisol dissolved in 25 mM phosphate buffer, pH 2.0. Measurements of body weight are taken immediately prior to drug treatment or 24 hr. after access to food is restored. […] Measurements of food intake are recorded 1 hr following access to food, as indicated, by weight of food remaining at 1 hr. It should be noted that food intake measured is during the light phase, a time during which mice are typically at rest and not normally eating. Following initial testing, mice are rested for 1 week with access to unlimited chow.

[3] = test system: NIH-Swiss mice; 129S6 wild type and nociceptin/ORL1 receptor knockout mice; experiment: Forced-swim test in mice (mFST); type: in vivo, mouse
Excerpt: Forced-Swim Test in Mice (mFST) mFST is an established in vivo assay for antidepressant activity (Li et al. J Pharmacol Exp Ther. 319(1):254-9, 2006.). […] The mFST was used to evaluate potential antidepressant-like activity of novel nociceptin/ORL1 antagonists according to previously published methods (Li et al. J Pharmacol Exp Ther. 319(1):254-9, 2006.). Briefly, male NIH-Swiss mice (Harlan Sprague-Dawley, Indianapolis, Ind.) weighing between 25-30 g are used. Group housed animals are removed from the vivarium to the testing area in their own cages and allowed to adapt to the new environment for at least 1 hour before testing. Alternatively, male 129S6 wild type and nociceptin/ORL1 receptor knockout mice were used to confirm dependence of the response to compound was nociceptin/ORL1 receptor dependent. All compounds are prepared in 20% Captisol, 25 mM phosphate buffer, pH 2.0 on the day of use. Mice are placed in a cylinder (diameter: 10 cm; height: 25 cm) filled with 6 cm of water (22-25° C.) for 6 min. The duration of immobility during the last 4 min. of the 6 min. period of the test was scored. A mouse is recorded as immobile when floating motionless or making only those movements necessary to keep its head above water.

[4] = wild type mice, oral gavage 30 min. prior to food, food intake 1 hr

Cc1cccc2c1CC[C@@H](CN1CCC(c3c(Cl)cccc3Cl)CC1)C[C@H]2O [SB612111, (−)-cis-1-methyl-7-[[4-(2,6-dichlorophenyl)piperidin-1-yl]methyl]-6,7,8,9-tetrahydro-5H-benzocyclohepten-5-ol, reference compound]
receptor occupancy at 30 mg/kg [1]: ~100%

Clc1cccc(N2CCNCC2)c1 [mCPP, meta-chlorophenylpiperazine, reference compound]
fasting-induced hyperphagia ([2]; ORL-1 knockout mouse strain): significantly reduce fasting induced hyperphagia
fasting-induced hyperphagia [2, 4]: significantly reduce fasting induced hyperphagia

CN(C)CCCN1c2ccccc2CCc2ccccc21 [imiprimine, reference compound]
immobilization time ([3]; ORL-1 knockout mice): reduce immobilization times
immobilization time ([3]; wild type mice): reduce immobilization times

Cc1nn(-c2c(F)cccc2CO)cc1CN1CCC2(CC1)OCC(F)(F)c1cc(Cl)sc12.O=C(O)C(O)C(O)C(=O)O [Example 1, [2-[4-[(2-Chloro-4,4-difluoro-spiro[5H-thieno[2,3-c]pyran-7,4′-piperidine]-1′-yl)methyl]-3-methyl-pyrazol-1-yl]-3-fluoro-phenyl]methanol (L)-Tartrate]
fasting-induced hyperphagia [2, 4]: substantially block fasting-induced hyperphagia
